Test results from paper PMC12000391, “Selective molecular inhibition of the HDAC6 ZnF-UBP binding domain impairs multiple myeloma cell function” (Cell Death Discovery, 2025).
Ends that are not written are not given here.

Assays:
[1] = target: T1, HDAC6 ZnF-UBP binding domain (ZnF-UBP^WT peptide, HDAC6^1109-1215) (Homo sapiens, UniProt Q9UBN7); assay: fluorescence polarization displacement of FITC-RLRGG
T1 construct: methods b47 print 1190-1215, apparently a misprint), expressed in E. coli BL21 Star (DE3), HisTrap purified
T1 sequence (Q9UBN7 1109-1215): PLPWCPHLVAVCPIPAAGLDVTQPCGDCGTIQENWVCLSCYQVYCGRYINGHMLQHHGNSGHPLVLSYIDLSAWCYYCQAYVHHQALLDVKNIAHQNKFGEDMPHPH
Source text: fluorescence polarization displacement of FITC-RLRGG on HDAC6 ZnF-UBP binding domain (ZnF-UBP^WT peptide, HDAC6^1109-1215)

[2] = target: T2, ubiquitin C-terminal pentapeptide RLRGG (Homo sapiens, also: FITC label, site not given here); assay: fluorescence polarization
T2 chain: RLRGG

Cn1c(CCC(=O)O)nc2cc(Cl)ccc2c1=O [1e, Quinazolinone 1e]
IC50 [1]: 1.9 ± 0.1 µM

COc1ccc2nc(CCC(=O)O)n(C)c(=O)c2c1 [1c, Quinazolinone 1c]
IC50 [1]: 2.1 ± 0.5 µM

Cc1ccc2c(=O)n(C)c(CCC(=O)O)nc2c1 [1g, Quinazolinone 1 g]
IC50 [1]: 2.1 ± 0.1 µM

Cn1c(CCC(=O)O)nc2ccc(Cl)cc2c1=O [1b, Quinazolinone 1b]
IC50 [1]: 1.9 ± 0.2 µM

Cn1c(CCC(=O)O)nc2cc([N+](=O)[O-])ccc2c1=O [1f, Quinazolinone 1 f]
IC50 [1]: 2.3 ± 0.2 µM

Cn1c(CCC(=O)O)nc2ccccc2c1=O [1a, quinazolinone 1a]
IC50 [1]: 2.7 ± 0.3 µM

Cc1ccc2nc(CCC(=O)O)n(C)c(=O)c2c1 [1d, Quinazolinone 1 d]
IC50 [1]: 13.6 ± 1 µM

B1: HDAC6 ZnF-UBP 1109-1215 (protein)
chain: T1 sequence (Q9UBN7 1109-1215)
Kd [2]: 680 nM
